From patent US20190142046A1, “FUNCTIONALLY REINFORCED DESALTED NUTRITIONAL COMPOSITIONS FROM HALOPHYTES AND PREPARATION METHOD THEREOF” (PHYTO CORPORATION, priority 2016, published 2019)
Where a name gives a salt, the structure may show the parent alone.

Legend:
Type in all cases: cell-based
PPARγ = assay: Real-Time RT-PCR, PPARγ gene expression in 3T3-L1; details: 10 μM
Experimental: (§1) Real-Time RT-PCR was performed to investigate the effect of trans-ferulic acid (TFA) on transcription factors involved in lipid metabolism at mRNA expression levels. Total RNA was isolated from a control group and each test group treated with various concentrations of TFA (easy-Blue, iNtRon, INC, Daejeon, Korea) and diluted at the same concentration, and cDNA synthesis was carried out using the diluted RNA samples (cDNA reverse transcription kits, Applied Biosystems, CA, USA).
(§2) In brief, after 3T3-L1 preadipocytes were treated with TFA at various concentrations, namely 1, 2, 5 and 10 μM), Real-time qRT-PCR was performed using the primers of Table 9 (CFX96 real-time PCR detection system, Bio-Rad Laboratories, Hercules, Calif., USA). The PCR conditions included denaturation at […] for 3 min, 45 cycles of 95° C. for 5 sec and 60° C. for 20 sec, and heating up to 95° C. (by increasing the temperature at a rate of 0.2° C./15 sec) to terminate the reaction. […] Therefore, the Desalted Salicornia Powder (DSP) containing TFA as an effective component may effectively reduce body fat by inhibiting adipocyte differentiation and lipid droplet formation and may eventually lead to a decrease in body weight, and thus has the potential to be applied as a functional food and feedstuff for preventing and/or treating obesity.

C/EBPα = assay: Real-Time RT-PCR, C/EBPα gene expression in 3T3-L1; details: 5 μM and 10 μM
Experimental: as §1, §2

3T3-L1 cells [1] = assay: Oil Red O staining of lipid droplets during adipocyte differentiation
Experimental: The major marker component of the desalted Salicornia powder, trans-ferulic acid (TFA), was evaluated for its inhibitory effect on adipocyte differentiation using 3T3-L1 cells as an in-vitro model of adipocyte differentiation. 3T3-L1 preadipocytes were checked for contamination every eight hours to improve confidence in the experiment. Primary preadipocytes were propagated, and were then induced to differentiate with a culture medium containing 3-isobutyl-1-methylxanthine (IBMX), dexamethasone and insulin. During the differentiation induction, the medium was changed twice every three days. After being induced to differentiate, 3T3-L1 cells were subjected to Oil Red O staining to detect the presence of intracellular lipid droplets. First, the medium was discarded from each well, and cells were fixed with 4% paraformaldehyde. Subsequently, cells were washed with 100% 1,2-propanediol dehydration solution for 5 min and then stained with Oil Red O stain solution. After Oil Red O staining, 85% 1,2-propanediol stain differential solution was added to each well for cell washing. Finally, distilled water was added to each well to prevent stained cells from drying, and cells were observed under a microscope to determine lipid accumulation.

SREBP-1 = assay: Real-Time RT-PCR, SREBP-1 gene expression in 3T3-L1; details: 1, 2, 5 and 10 μM; largest decrease at 10 μM
Experimental: as §1, §2

3T3-L1 cells [2] = assay: Intracellular triglyceride formation during adipocyte differentiation
Experimental: The major marker component of the desalted Salicornia powder, trans-ferulic acid (TFA), was evaluated for its inhibitory effect on adipocyte differentiation using 3T3-L1 cells as an in-vitro model of adipocyte differentiation. 3T3-L1 preadipocytes were checked for contamination every eight hours to improve confidence in the experiment. Primary preadipocytes were propagated, and were then induced to differentiate with a culture medium containing 3-isobutyl-1-methylxanthine (IBMX), dexamethasone and insulin. During the differentiation induction, the medium was changed twice every three days. In addition, as a marker for adipocyte differentiation, intracellular triglyceride formation was investigated.

FAS = assay: Real-Time RT-PCR, FAS gene expression in 3T3-L1; details: 1, 2, 5 and 10 μM; largest decrease at 10 μM
Experimental: as §1, §2

COc1cc(/C=C/C(=O)O)ccc1O [TFA, trans-ferulic acid]
PPARγ gene expression (PPARγ): significantly reduced
C/EBPα gene expression compared to differentiation-induced control (MDI) (C/EBPα): significantly reduced in a dosage-dependent manner
inhibition of lipid droplet formation compared to differentiation-induced control (MDI) (3T3-L1 cells [1]; 5 μM and 10 μM): remarkably significant inhibition
adipocyte differentiation and lipid droplet formation (Oil Red O) (3T3-L1 cells [1]; within the used concentrations): inhibit adipocyte differentiation and lipid droplet formation in a dosage-dependent manner
SREBP-1 gene expression compared to differentiation-induced control (MDI) (SREBP-1): reduced in a dosage-dependent manner
triglyceride formation compared to differentiation-induced control (MDI) (3T3-L1 cells [2]; 5 μM and 10 μM): remarkably significantly inhibited
intracellular triglyceride formation (3T3-L1 cells [2]; 1, 2, 5 and 10 μM): reduced intracellular triglyceride formation in a dosage-dependent manner
FAS gene expression compared to differentiation-induced control (MDI) (FAS): reduced in a dosage-dependent manner
